Experimental data as given in US7358091B2, “Device and methods for identifying and treating aspirin non-responsive patients” (Portola Pharmaceuticals, Inc., priority 2004, dated 2008).
Bridge positions count the residues as written; N and C are the ends. Square brackets hold non-standard residues; d marks the D form. Peptide text beside a SMILES is read from it. hArg = N=C(N)NCCCC[C@H](N)C(=O)O; Mpa = O=C(O)CCS

How the values were obtained:
P2Y12 receptor = target: T1, P2Y12 receptor (Homo sapiens, UniProt Q9H244); test: P2Y12 receptor blockade in vitro in whole blood; type: cell-based; conditions: 5 μM
T1 construct: endogenous in cells; host or cells: platelets in citrate-anticoagulated whole blood of blood donors
T1 sequence (Q9H244 whole entry): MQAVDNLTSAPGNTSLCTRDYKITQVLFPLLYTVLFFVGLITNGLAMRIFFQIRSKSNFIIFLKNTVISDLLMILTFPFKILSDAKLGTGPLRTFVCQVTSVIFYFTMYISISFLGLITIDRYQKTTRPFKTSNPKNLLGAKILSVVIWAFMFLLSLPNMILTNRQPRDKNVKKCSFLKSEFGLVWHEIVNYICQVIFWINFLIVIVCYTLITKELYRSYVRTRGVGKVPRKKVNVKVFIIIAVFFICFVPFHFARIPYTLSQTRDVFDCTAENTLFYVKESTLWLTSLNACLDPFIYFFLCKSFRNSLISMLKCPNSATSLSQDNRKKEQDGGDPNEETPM
Protocol: (§1) FIG. 9 is a representation of the thrombotic deposits formed on type III collagen at 1000/sec in the rectangular perfusion chamber in 2 blood donors, before and after aspirin uptake (325 mg/d for 3 days). Anticoagulated blood (citrate 3.8%, 1:9 v of blood) is collected and added into 5 ml tubes containing either DMSO (vehicle control for the P2Y12 antagonist), a direct P2Y12 antagonist at 5 μM (which totally block the receptor), or a direct P2Y12 antagonist at 5 μM in presence of 20 μM Epinephrine. Anticoagulated blood is perfused through a rectangular capillary (0.2×2 mm, Vitrocom) coated with fibrillar type III collagen at 1000/sec for 4 minutes. Thrombotic deposits are then rinsed for 15 seconds with buffer “C”, fixed for 1 minute in phosphate-buffered glutaraldehyde (2.5%), stained for 45 sec in toluidine blue. Picture is taken at 5 mm from the proximal part of the chamber, and measurement of the grey level performed with Prism software.
Most ACS patients eligible for percutaneous coronary intervention (PCI) are under PLAVIX (clopidogrel bisulfate) therapy. […]

[1] = tested on: preformed thrombi on collagen coated surface; test: Real time thrombosis perfusion chamber assay, destabilization of preformed thrombi; type: cell-based; conditions: for effect on preformed thrombi, aspirin background: aspirinated blood over preformed aspirinated thrombi; for mean slope after first perfusion (mSAFP): untreated blood 210 seconds at 1500/sec, then blood treated with agent, eptifibatide 2.4 μM, Ifetroban 0.3 μM; for mean slope after first perfusion (mSAFP) / mean slope after first perfusion (mSAFP), aspirin background: 2-MeSAMP 100 μM; for mean slope after first perfusion (mSAFP), aspirin background: aspirinated blood, aspirin alone = saline control, eptifibatide; for effect on preformed thrombi: untreated blood background, second perfusion with agent
Protocol: Evaluation of the ability of thromboxane receptor (TP) antagonists to destabilize preformed thrombi was performed as followed in the real time thrombosis perfusion chamber assay (monitoring of fluorescently labeled platelets onto collagen coated surface). Untreated samples of blood were first perfused through the collagen-coated perfusion chamber for 210 seconds at 1500/sec. […] In order to evaluate a possible role for PGD2 in mediating thrombus destabilization, aspirinated blood was perfused in presence of PDG2 over preformed aspirinated thrombi.

[2] = tested on: thrombus formation on type III collagen; test: Real time collagen-coated perfusion chamber, kinetics of thrombus formation; type: cell-based, human; conditions: 2.5 μM, PPACK-anticoagulated blood, collagen type III-coated capillary
Protocol: Phe-Pro-Arg-chloromethylketone (PPACK)-anticoagulated blood is added to a tube containing Rhodamine 6-glucose (Rhodamine 6G) (0.2 mg/ml). Five minutes later, blood is perfused through a rectangular capillary mounted on the stage of an inverted microscope (under ultraviolet (UV) light (Rhodamine filter) platelets appear fluorescent). As the blood flows on the collagen type III-coated capillary chamber, platelets adhere and start building a thrombus. Two frames per second are recorded and analyzed for mean fluorescent intensity for the entire perfusion period. At the end of the perfusion, standard deviation in light intensity is plotted against the time by the Prism software.
After blood collection into either citrate or PPACK (4 ml are needed per perfusion chamber) Rhodamine 6G (0.2 mg/mL) is added to the blood and incubated at 37° C. for 5 minutes. Collagen-coated rectangular glass capillaries (Vitrocom) are mounted on the stage of a fluorescent microscope and illuminated under light, UV, or both. […] Platelet collagen interactions and thrombus formation are recorded in real time with the Simple PCI software. The mean fluorescence intensity parallels the kinetics of the thrombotic process, because all platelets are labeled by rhodamine 6G. The kinetics of the thrombotic process is recorded at 2 frames per second for 5 minutes and plotted versus time.

[3] = tested on: aggregation induced by ADP; test: Aggregation induced by ADP; type: cell-based; conditions: 100 μM
[4] = tested on: mixed platelet/leukocyte aggregates; test: Arachidonic acid-/shear-induced platelet aggregation assay in whole blood; type: cell-based; conditions: 0.8 mM arachidonic acid, 1700/sec followed by 80/sec
Protocol: FIG. 10 is a schematic representation of the AA/shear-induced thrombotic process utilized in our preliminary study. AA (0.8 mM) is added to citrate-anticoagulated blood (37° C. incubation time=1 minute) then perfused via a silastic tubing to a stenosis (high shear rate, 1700/sec: Hγ) followed by a low shear rate area (80/sec: Lγ). Observation of the mixed platelet/leukocyte aggregates is performed under UV at 10× magnification using a fluorescent microscope.
Platelets are labeled in whole blood with Rhodamine 6G as described above. Following addition of AA, blood will be perfused through 2 successive chambers which generate high (1500/sec) and low (50/sec) shear rates. The high shear rate induces platelet activation and aggregation is created by a sudden decrease in capillary diameter. The low shear rate area allows for the real time evaluation/quantification of the size of the platelet/platelet, platelet/leukocyte aggregates that will pass and/or adhere via the Simple PCI software or similar software capable of evaluating the size of the flowing thrombi.
Large mixed platelet/leukocyte aggregates are detectable in the low shear area (observable after less than 30 seconds) when whole blood is treated with 0.8 mM arachidonic acid and perfusion through a small uncoated circular capillary at 1700/sec followed by a larger capillary at 80/sec. […]

[5] = tested on: platelet aggregation in PRP; test: Arachidonic acid-induced platelet aggregation in PRP; type: cell-based, human; conditions: 325 mg/d ASA for 3 days, compared with baseline, all 5 donors
Protocol: (§2) The effects of aspirin (normal volunteers were drug free for 2 weeks prior to 325 mg/d ASA for 3 days) and 50% inhibition of P2Y12 on arachidonic acid-induced platelet aggregation in PRP, TxB2 generation, PFA-100 with both Collagen/Epinephrine (CEpi) and Collagen/ADP (CADP) cartridges were evaluated. Arachidonic acid-induced platelet aggregation and TxB2 generation were abolished by aspirin treatment compared with baseline for all 5 donors. […] All donors gave the expected prolongation of the CEpi cartridge after aspirin treatment. In addition, 2 out of 5 donors presented unusual phenotypes (FIG. 6). In donor 1, aspirin increased the CADP closure time, whereas in donor 2, P2Y12 antagonism increased closure time of the CEpi cartridge above the limit defined by the manufacturer for aspirin effect.

[6] = tested on: platelet function under high shear stress; test: PFA-100 closure time, CEpi and CADP cartridges; type: cell-based, human; conditions: 325 mg/d ASA for 3 days
Excerpt: Whole blood was drawn into 3.8% Sodium citrate vacuum tubes and analyzed using the Platelet Function Analyzer (PFA-100). Sample results are based on the platelet function under high shear stress. Platelet adhesion and aggregation are triggered by a biologically active membrane coated with collagen and either epinephrine (EPI) or ADP. Platelets exposed to EPI or ADP under flow conditions are activated on the collagen surface. The time required to full occlusion of an aperture cut in the membrane defines the “closure time” (CT).
as §2

platelet aggregation = test: Ultegra RPFA-ASA assay in whole blood; type: cell-based, human; conditions: aspirin 275 μM added to the blood in vitro; all 5 blood donors; compared with 50% inhibition of P2Y12
Protocol: Whole blood was drawn into 3.2% Sodium citrate vacuum tubes and analyzed using the Ultegra RPFA-ASA assay. Sample results are based on the extent of platelet aggregation, reported in Aspirin Reaction Units (ARU). ARU≥250 is consistent with no platelet dysfunction, ARU<550 is consistent with platelet dysfunction due to aspirin.
The effects of aspirin (275 μM added to the blood in vitro) and 50% inhibition of P2Y12 (corresponding to the extent of inhibition achieved in patients under PLAVIX (clopidogrel bisulfate) treatment) were evaluated in the RPFA-ASA (n=5). A direct P2Y12 antagonist (5-chloro-N-[({4-[7-fluoro-6-(methylamino)-1-oxoisoquinolin-2(1H)-yl]phenyl}amino)carbonyl]thiophene-2-sulfonamide) is used in vitro at a concentration that inhibits 50% of ADP-induced platelet aggregation in PRP as PLAVIX (clopidogrel bisulfate) cannot be used in vitro (it needs to be metabolized by the liver to generate the active metabolite).

[7] = tested on: thrombotic deposits on type III collagen; test: Perfusion chamber assay on type III collagen at 1000/sec, end-point grey level; type: cell-based, human; conditions: citrate blood, 2 donors before and after aspirin 325 mg/d for 3 days, DMSO-treated and P2Y12 antagonism+epinephrine-treated blood
Protocol: as §1
A perfusion chamber assay on type III collagen (DMSO (vehicle) treated (a), full P2Y12 antagonism (b), full P2Y12 antagonism with epinephrine 20 μM(c)) have been performed before and 3 days after a daily dose of aspirin (325 mg).

patients = conditions: human, in vivo; cited from earlier work
TxB2 generation = test: TxB2 generation; type: cell-based, human; conditions: 325 mg/d ASA for 3 days, compared with baseline, all 5 donors
Protocol: as §2

[8] = tested on: thrombotic process on collagen; test: Fibrillar type III collagen-coated capillary perfusion chamber at arterial shear rates; type: cell-based, human
Protocol: In one example of the perfusion chamber assay of the invention, the assay enables the investigator to evaluate thrombotic process under arterial shear rates in less than 15 minutes after blood draw. The simplicity of the perfusion chamber allows for multiple parallel experiments as the thrombogenic surface is deposited inside a regular glass capillary tube. The system is easy to use as only 2 tubings are needed: a proximal tubing to connect the blood sample to the capillary, and a distal tubing which connects the capillary to the pump. A limited amount of blood is required to reconstitute arterial shear rate conditions (4 ml of blood for 1 perfusion chamber). […]
At the end of the perfusion, the capillary is rinsed for 20 sec and fixed with 2.5% phosphate buffered glutaraldehyde for 1 minute. […] An En Face picture located 5 mm downstream of the proximal part of the capillary is taken, and the grey level of each thrombus or platelets located in a window 400 μm long×400 μm wide is measured (Simple PCI software, Compix Inc. Imaging System). Thrombotic deposits were then embedded in Epon, subsequently cross sectioned (at the same location used for measurement of the grey level) and their mean thrombus volume determined. […]

P2Y12-deficient mice [9] = tested on: P2Y12-deficient mice
Excerpt: This phenotype is rescued by the injection of epinephrine in vivo (Andre, P. et al., J Clin Invest, 112(3):398-406 (2003)).

P2Y12-deficient mice [10] = conditions: injection of epinephrine in vivo; cited from earlier work

With `CNc1cc2ccn(-c3ccc(NC(=O)NS(=O)(=O)c4ccc(Cl)s4)cc3)c(=O)c2cc1F` [5-chloro-N-[({4-[7-fluoro-6-(methylamino)-1-oxoisoquinolin-2(1H)-yl]phenyl}amino)carbonyl]thiophene-2-sulfonamide] as the compound, how does the “blockade of the P2Y12 receptor” value (P2Y12 receptor) read?
Its value is “full blockade”.

Which “effect on preformed thrombi, aspirin background” value (shortened to “effect … aspirin background”) [1] does the source give for `CCCCC[C@H](O)/C=C/[C@H]1C(=O)C[C@H](O)[C@@H]1C/C=C\CCCC(=O)O` [PDG2, PGD2] here?
The value was “significant, spontaneous reversal of thrombosis”.

Which results are given for `CCCCCNC(=O)c1coc([C@H]2[C@@H](Cc3ccccc3CCC(=O)O)[C@@H]3CC[C@H]2O3)n1` [Ifetroban]?
effect on preformed thrombi, aspirin background [1]: abolished the destabilization effects; mean slope after first perfusion (mSAFP) [1]: −2.5±0.6

Which results are given for `N=C(N)NCCCC[C@@H]1NC(=O)CCSSC[C@@H](C(N)=O)NC(=O)[C@@H]2CCCN2C(=O)[C@H](Cc2c[nH]c3ccccc23)NC(=O)[C@H](CC(=O)O)NC(=O)CNC1=O` [eptifibatide] ([Mpa][hArg]GDWPC-NH2; disulfide 1-7)?
thrombotic profile (real time kinetics of thrombus formation) [2]: flat curve; effect on preformed thrombi, aspirin background [1]: sudden dethrombosis; mean slope after first perfusion (mSAFP), aspirin background [1]: −2.6±0.9; mean slope after first perfusion (mSAFP) [1]: 0.17±0.22; effect on preformed thrombi [1]: no apparent destabilization

With `CSc1nc(N)c2ncn([C@@H]3O[C@H](COP(=O)(O)O)[C@@H](O)[C@H]3O)c2n1` [2-MeSAMP] as the compound, how does the “aggregation induced by ADP” value [3] read?
The value was “totally blocks”.

What about the “effect … aspirin background” value [1] of the same compound?
The value was “sudden dethrombosis”.

And the “mean slope after first perfusion (mSAFP), aspirin background” value [1]?
The value was −4.1±0.7.

And the “mean slope after first perfusion (mSAFP)” value [1]?
The value was −1.8±0.2.

And the “effect on preformed thrombi” value [1]?
The value was “marked dethrombosis”.

With `CC(C)(C)N/C(=N\C#N)Nc1cccc(/C(=C\CCCC(=O)O)c2cccnc2)c1` [Terbogrel] as the compound, how does the “large mixed platelet/leukocyte aggregates in the low shear area” value [4] read?
The value was “prevented”.

Which “arachidonic acid-induced platelet aggregation in PRP” value [5] does the source give for `CC(=O)Oc1ccccc1C(=O)O` [aspirin] here?
Its value is “abolished”.

And the “PFA-100 closure time, CEpi cartridge” value ([6]; all donors)?
The value was “prolongation”.

What about the “PFA-100 closure time, CADP cartridge” value ([6]; donor 1 (unusual phenotype)) of the same compound?
Its value is “increased”.

And the “aspirin effects in RPFA-ASA (Aspirin Reaction Units)” value (platelet aggregation)?
The value was “smaller than that obtained with 50% inhibition of P2Y12”.

What about the “effect … aspirin background” value [1] of the same compound?
Its value is “slow and moderate destabilization”.

What about the “mean slope after first perfusion (mSAFP), aspirin background” value [1] of the same compound?
The value was −1.07±0.3.

What about the “thrombotic deposits formed on type III collagen (grey level)” value [7] of the same compound?
The value was “aspirin effect is observed”.

What about the “patients with aspirin-induced asthma” value (patients) of the same compound?
Its value is at most 20%.

What about the “reduction of post-acute myocardial infarction (AMI) cardiovascular events” value (patients) of the same compound?
The value was 25-30%.

And the “reduction of the incidence of AMI in the acute phase of unstable angina” value (patients)?
Its value is “up to 25%”.

What about the TxB2 generation (TxB2 generation) of the same compound?
Its TxB2 generation is “abolished”.

What about the “large mixed platelet/leukocyte aggregates in the low shear area” value [4] of the same compound?
The value was “prevented”.

And the “antithrombotic effects on collagen in combination with P2Y12 inhibitors” value [8]?
Its value is “synergize”.

What does the source list for `CNC[C@H](O)c1ccc(O)c(O)c1` [epinephrine]?
phenotype of P2Y12-deficient mice in a collagen-coated perfusion chamber (P2Y12-deficient mice [9]): correct the phenotype; protection of P2Y12-deficient mice from vascular occlusion after FeCl3 injury (P2Y12-deficient mice [10]): rescued
